Test in all cases: growth of human tumour cells (NCI), 48 h
Assay [1] relates to A549 NSCLC.
The subject of assay [2] is KM12 colon.
Assay [3] concerns SNB-19 CNS.
Assay [4] has as its system BT-549 breast.
The test system of assay [5] is CAKI-1 renal.
The test system of assay [6] is SR leukemia.
In assay [7] the test system is HCC-2998 colon.
Assay [8] relates to OVCAR-4 ovarian.
For assay [9], the system named is DU-145 prostate.
The test system of assay [10] is SF-295 CNS.

The structures appear in SMILES notation.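 Values below derive from 48-hour exposures of cells grown in 96-well plates, with endpoints linearly interpolated between the two concentrations bracketing the appropriate inhibition level. The concentration for 50% growth inhibition is given as GI50. TGI marks complete inhibition of growth.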 Where only a bound is given, the exact number is not on record here.

Regarding `CN(C)C(=O)c1cc2cnc(Nc3ccc(-c4csc5c(=O)cc(N6CCNCC6)oc45)cc3)nc2n1C1CCCC1`, the GI50 is 1.16 µM in assay [1]; 0.345 µM in assay [2]; 0.551 µM in [3]; 1.35 µM in assay [4]; 0.819 µM in assay [5]; 0.231 µM in [6]. Further, the GI50 in assay [7] is 0.551 µM; in assay [8] it was 1.34 µM; in [9], 1.01 µM; in assay [10], 2.1 µM. Also, the TGI in assay [1] amounted to 3.81 µM; in [2], 1.58 µM; in assay [3], 2.62 µM; in [4], 3.15 µM; in [5], 12.9 µM; in [6], 2.44 µM. In addition, the TGI is 2.03 µM in assay [7], 5.73 µM in [8], 2.5 µM in assay [9] and 10.7 µM in assay [10].
For `CCN(CC)CCCOc1cc(O)c2c(=O)cc(-c3ccccc3)oc2c1`, the GI50 in assay [1] is 5.53 µM; in assay [2], 11.7 µM; in [3] it was 12.1 µM; in [4], 13.3 µM; in [5] it was 13.9 µM; in assay [6] it was 3.44 µM. Moreover, the GI50 in assay [7] is 10.1 µM; in assay [8], 5.94 µM; in [9], 10.2 µM; in assay [10] it was 11.9 µM. In addition, the TGI was 22.5 µM in assay [1]; 33.3 µM in assay [2]; 24.5 µM in assay [3]; 26.6 µM in [4]; 38.8 µM in assay [5]; 9.39 µM in assay [6]. Moreover, the TGI was found to be 24.4 µM in assay [7], 25.1 µM in assay [8], 21.8 µM in [9] and 28.1 µM in assay [10].
With `C=CC(=O)N1CCC([C@@H]2CCNc3c(C(N)=O)c(-c4ccc(Oc5ccccc5)cc4)nn32)CC1`, the GI50 is 13.2 µM in assay [1]; 31.5 µM in assay [2]; 16.9 µM in [3]; 11.9 µM in assay [4]; 10.4 µM in [5]; 23.9 µM in assay [6]. For the same molecule, the GI50 in [7] was 14.2 µM; in assay [8], 13.5 µM; in [9] it was 6.82 µM; in assay [10] it was 22.4 µM. The TGI in assay [1] was above 100 µM; in assay [2] it was 98.9 µM; in assay [3], above 100 µM; in assay [4] it was 31 µM; in assay [5] it was 44.7 µM; in assay [6] it was above 100 µM. Besides, the TGI was 29.6 µM in assay [7], 97.2 µM in [8], 61.3 µM in [9] and above 76.6 µM in [10].
Turning to `COc1cc2nc(N3CCCC3)nc(Nc3ccccc3)c2cc1OC`, the GI50 in assay [1] is 1.65 µM; in assay [2], 1.74 µM; in assay [3], 1.65 µM; in [4] it was 1.69 µM; in [5], 1.45 µM; in assay [6], 0.234 µM. For the same molecule, the GI50 in assay [7] was 1.9 µM; in assay [8], 1.43 µM; in assay [9] it was 1.62 µM; in assay [10], 1.8 µM. In addition, the TGI in [1] came to 4.31 µM; in [2], 3.32 µM; in assay [3], 3.14 µM; in [4] it was 3.25 µM; in [5] it was 2.8 µM; in assay [6] it was 1.26 µM. In addition, the TGI was 3.65 µM in assay [7], 2.8 µM in [8], 3.07 µM in assay [9] and 3.27 µM in assay [10].
With `N#Cc1cccc(/C=C(/C(=O)c2ccccc2)c2ccccc2)c1`, the GI50 in assay [1] was 10.8 µM; in assay [2], 3.31 µM; in [3], 5.07 µM; in [4], 4.16 µM; in [5], 3.92 µM; in assay [6], 2.94 µM. In addition, the GI50 was 3.15 µM in [7], 6.35 µM in assay [8], 3.36 µM in [9] and 4.23 µM in assay [10]. Further, the TGI in assay [1] was 47.6 µM; in [2] it was 11.6 µM; in assay [3], 19.9 µM; in [4] it was 15.1 µM; in assay [5], 16.1 µM; in [6], above 100 µM. For the same molecule, the TGI in [7] is 9.35 µM; in assay [8], 20.3 µM; in assay [9], 10.2 µM; in assay [10], 17.1 µM.
As for `CNNC(=N\S(=O)(=O)c1cc(C(=O)Nc2ccc(Cl)cc2)c(Cl)cc1SCc1ccccc1)/N=C/c1ccc([N+](=O)[O-])s1`, the GI50 in assay [1] is 20.5 µM; in assay [2], above 100 µM; in assay [3], above 100 µM; in assay [4], above 100 µM; in assay [5], above 100 µM; in assay [6], above 100 µM. The GI50 in assay [7] is 2.83 µM; in assay [8], above 100 µM; in [9], above 20.3 µM; in assay [10] it was above 100 µM. Further, the TGI in [1], in assay [2], in [3], in assay [4], in assay [5] and in assay [6] was above 100 µM in each case. The TGI in assay [7], in assay [8], in [9] and in assay [10] was above 100 µM each time.
On to `CC1(C)N=C(N)N=C(N)N1c1cccc(CCCCc2ccccc2)c1`, for which the GI50 is 0.0382 µM in [1]; 0.212 µM in [2]; 0.907 µM in assay [3]; 0.901 µM in [4]; 4.15 µM in [5]; 0.188 µM in assay [6]. The GI50 in assay [7] was 0.195 µM; in [8], 0.433 µM; in [9], 0.351 µM; in [10] it was 0.229 µM. The TGI worked out at 1.35 µM in [1]; 1.86 µM in assay [2]; 16.6 µM in assay [3]; 3.99 µM in assay [4]; 22.3 µM in assay [5]; 2.89 µM in [6]. Besides, the TGI stood at 3.82 µM in assay [7], 18.8 µM in assay [8], 15 µM in assay [9] and 5.79 µM in assay [10].
With `c1ccc(-c2nnc(Nc3ccc4c(c3)OCCO4)o2)c(NCc2ccncc2)c1`, the GI50 was 0.0388 µM in assay [1]; 0.0327 µM in [2]; 0.0536 µM in [3]; 0.0589 µM in assay [4]; 0.16 µM in assay [5]; below 0.01 µM in assay [6]. The GI50 in [7] is 0.0296 µM; in assay [8] it was 0.0818 µM; in [9] it was 0.0363 µM; in assay [10], 0.0136 µM. Moreover, the TGI was 15.4 µM in [1]; 0.435 µM in assay [2]; above 100 µM in assay [3]; 7.01 µM in assay [4]; above 100 µM in assay [5]; above 46.5 µM in assay [6]. The TGI is 1.35 µM in [7], 21.9 µM in [8], 0.566 µM in assay [9] and above 100 µM in assay [10].
Regarding `COc1ccc2[nH]c(=O)c(/C=C/C(=O)/C=C/c3ccc(O)c(OC)c3)cc2c1`, the GI50 was 2.24 µM in assay [1]; 1.08 µM in assay [2]; 1.67 µM in [3]; 1.37 µM in assay [4]; 1.71 µM in [5]; 0.381 µM in assay [6]. The GI50 was 1.97 µM in assay [7], 2.91 µM in [8], 1.69 µM in assay [9] and 2.36 µM in assay [10]. The TGI was 6.35 µM in [1]; 2.66 µM in assay [2]; 3.92 µM in assay [3]; 2.66 µM in assay [4]; 3.1 µM in [5]; above 100 µM in [6]. Besides, the TGI is 3.64 µM in [7], 29.4 µM in [8], 3.5 µM in assay [9] and 7.36 µM in assay [10].
In the case of `O=C(OCC1OC(OC(=O)c2cc(O)c(O)c(OC(=O)c3cc(O)c(O)c(O)c3)c2)C(OC(=O)c2cc(O)c(O)c(OC(=O)c3cc(O)c(O)c(O)c3)c2)C(OC(=O)c2cc(O)c(O)c(OC(=O)c3cc(O)c(O)c(O)c3)c2)C1OC(=O)c1cc(O)c(O)c(OC(=O)c2cc(O)c(O)c(O)c2)c1)c1cc(O)c(O)c(OC(=O)c2cc(O)c(O)c(O)c2)c1` (stereo not given), the GI50 in [1] was 20.7 µM; in [2], 7.23 µM; in assay [3], 24.7 µM; in assay [4] it was 12.1 µM; in assay [5] it was 9.63 µM; in assay [6] it was 21 µM. Moreover, the GI50 in [7] was 11.2 µM; in assay [8] it was 35.2 µM; in assay [9] it was 14.8 µM; in [10], 8.65 µM. Moreover, the TGI was above 50 µM in assay [1]; 27.1 µM in assay [2]; above 50 µM in assay [3]; 35.9 µM in assay [4]; 47.5 µM in assay [5]; above 50 µM in assay [6]. Moreover, the TGI is 46 µM in assay [7], above 50 µM in [8], above 50 µM in assay [9] and 22.9 µM in [10].

The record behind these values is PubChem BioAssay (NCI).
